Results published in patent US6162810A, “Inadone and tetralone compounds for inhibiting cell proliferation” (The Regents of the University of California, priority 1998, dated 2000).
Entries after “also recorded” stand apart in the source; their conditions may differ.

Columns and labels:
[1] = test system: MCF-7 wild type cells; experiment: Cell death of stationary phase MCF-7 wild type cells (FACS); assay type: cell-based, human; details: MCF-7 wild type (parental) cells
[2] = test system: CEM/VLB100; experiment: Growth inhibition of CEM/VLB100 (MDR); assay type: cell-based; details: Homo sapiens, ±1 SD, n>5
[3] = test system: human cancer cell lines; experiment: Hollow fiber assay, in vivo growth inhibitory activity; set-up: species or system human cells in mice
Protocol: To screen the compounds of the invention for growth inhibitory activity, a hollow fiber assay test was performed according to the protocol established by the National Cancer Institute's Developmental Therapeutics Program.
Briefly, according to the National Cancer Institute, the hollow fiber assay is performed as follows:
For these assays, human tumor cells are cultivated in polyvinylidene fluoride (PVDF) hollow fibers, and a sample of each cell line is implanted into each of two physiologic compartments (intraperitoneal and subcutaneous) in mice. Each test mouse receives a total of 6 fibers (3 intraperitoneally and 3 subcutaneously) representing 3 distinct cancer cell lines. Three mice are treated with potential antitumor compounds at each of 2 test doses by the intraperitoneal route using a QD×4 treatment schedule. Vehicle controls consist of 6 mice receiving the compound diluent only. The fiber cultures are collected on the day following the last day of treatment. To assess anticancer effects, viable cell mass is determined for each of the cell lines using a formazan dye (MTT) conversion assay. From this, the % T/C can be calculated using the average optical density of the compound treated samples divided by the average optical density of the vehicle controls. In addition, the net increase in cell mass can be determined for each sample as a sample of fiber cultures are assessed for viable cell mass on the day of implantation into mice. Thus, the cytostatic and cytocidal capacities of the test compound can be assessed.
This represents a total of 4 experiments since each experiment contains 3 cell lines. The data are reported as % T/C for each of the 2 compound doses against each of the cell lines with separate values calculated for the intraperitoneal and subcutaneous samples.
Compounds are selected for further in vivo testing in standard subcutaneous xenograft models on the basis of several hollow fiber assay criteria. […] The intraperitoneal and subcutaneous samples are scored separately so that criteria (1) and (2) can be evaluated. […]

[4] = test system: MCF-7/ADR; experiment: Growth inhibition of MCF-7/ADR (MDR); assay type: cell-based; details: Homo sapiens, NCI/ADR-RES, ±1 SD, n>5
[5] = test system: MCF-7; experiment: Growth inhibition of MCF-7 (wild type); assay type: cell-based; details: Homo sapiens, MCF7, ±1 SD, n>5
[6] = test system: KB-GRC-1 and MV522/Q6; experiment: MTT proliferation assay of mdr1 overexpressing transfectomas; assay type: cell-based, human; details: 72 h
[7] = test system: tubulin; experiment: Inhibition of [3H]vinblastine binding to tubulin; set-up: species or system bovine; details: single experiment
Protocol: The TB compounds of the invention (as represented by TB compound IK-178), are nearly as potent as the strong tubulin assembly inhibitor, combretastatin A-4 (CS-A4). In particular, the GI^50 inhibitory concentration of CS-A4 was 1.2±0.03 μM (n=4), while that of TB compound IK-178 was 1.7±0.1 μM (n=3).

[8] = test system: normal peripheral blood lymphocytes; experiment: Viability of normal peripheral blood lymphocytes; assay type: cell-based; details: as much as 1000-fold higher concentrations, 72 hours
[9] = test system: MV522/Q6; experiment: Growth inhibition of MV522/Q6 (MDR); assay type: cell-based; details: Homo sapiens, ±1 SD, n>5
[10] = test system: KB-3-1; experiment: Growth inhibition of KB-3-1 (wild type); assay type: cell-based; details: Homo sapiens, ±1 SD, n>5
[11] = test system: HL-60/ADR; experiment: Growth inhibition of HL-60/ADR (MDR); assay type: cell-based; details: Homo sapiens, HL60/ADR, ±1 SD, n>5
[12] = test system: HL-60/ADR and MDF-7/ADR cells; experiment: MTT assay, visual comparison of cells with and without MDR (FIGS. 1 and 2); assay type: cell-based, human; details: 3 days
[13] = test system: HL-60; experiment: Growth inhibition of HL-60 (wild type); assay type: cell-based; details: Homo sapiens, ±1 SD, n>5
[14] = test system: MV522; experiment: Growth inhibition of MV522 (wild type); assay type: cell-based; details: Homo sapiens, ±1 SD, n>5
[15] = test system: HL-60/ADR cells; experiment: Apoptosis of HL-60/ADR cells (FACS); assay type: cell-based, human
Protocol: FACS analysis was performed to determine the influence of the TB compounds of the invention on growth cycling of cells (the analysis was performed on harvested cells, fixed in ice-cold 70% ethanol solution, then treated with 100 μg/ml of RNAse A and stained with 50 μg/ml propidium iodide for 1 h at 37° C. DNA content of the cells was analyzed by flow cytometry (Becton Dickinson FACScalibur), and the cell cycle distribution was calculated with the program ModFit LT 2.0 (Verity Software)).
First, the stage at which the TB compounds of the invention arrest growth of HL-60 and HL-60/ADR cells was determined by FACS analysis and caspase-3 activation as described above.

[16] = test system: KB-GRC-1; experiment: Growth inhibition of KB-GRC-1 (MDR); assay type: cell-based; details: Homo sapiens, MDR1, ±1 SD, n>5
[17] = test system: tubulin (colchicine-binding site); experiment: Inhibition of [3H]colchicine binding to tubulin; set-up: species or system bovine; details: 5 μM compound, 5 μM [3H]colchicine, 1 μM tubulin, n=4
Protocol: (§1) To evaluate the effects of the TB compounds of the invention on tubulin, bovine brain tubulin (2.2 mg/ml) was incubated in PEM80 (80 mM K-PIPES, 1 mM MgCl2, 1 mM EGTA) containing 10% glycerol and 2 mM GTP for 30 minutes at 37° C. in the presence or absence of 20 μg/ml nocodazole, 1 mM paclitaxel, or TB compound no. IK-178 at various concentrations. Tubulin polymer was resolved from monomer by sedimentation through a cushion of 60% glycerol in PEM80 at 70,000 rpm for 30 min at 37° C. in a Beckman TLA100 rotor. A fraction of the supernatant was removed for analysis, the cushion washed and then aspirated, and the pellet resuspended in SDS-PAGE sample buffer. Equal proportions of the supernatant and the pellet were then resolved by SDS-PAGE and tubulin visualized by staining with Coomassie blue.
(§2) The quantitative assessment of drug inhibition of tubulin polymerization and evaluation of inhibition of [^3 H]colchicine binding to tubulin were then performed. […] Samples were placed on ice and GTP (0.4 mM) was added. Reaction mixtures were transferred to 0° C. cuvettes in Gilford 250 spectrophotometers, baselines were establishes/d, and the temperature was jumped to 30° C. with electronic temperature controllers (about 60 sec). The IC^50 was defined as the drug concentration required to inhibit extent of assembly after a 20 min incubation. […]

[18] = test system: caspase-3 in HL-60 cells; experiment: Caspase-3 activation in HL-60 cells; assay type: cell-based, human
[19] = test system: MES-SA/DX5; experiment: Growth inhibition of MES-SA/DX5 (MDR); assay type: cell-based; details: Homo sapiens, ±1 SD, n>5
[20] = test system: MDA3-1/gp170; experiment: Growth inhibition of MDA3-1/gp170 (MDR); assay type: cell-based; details: Homo sapiens, MDR1, ±1 SD, n>5
[21] = test system: caspase-3 in HL-60/ADR cells; experiment: Caspase-3 activation in HL-60/ADR cells; assay type: cell-based, human; details: 10 nM
[22] = test system: caspase-3 in MCF-7/ADR cells; experiment: Caspase-3 activation in noncycling MCF-7/ADR cells; assay type: cell-based, human
Protocol: Briefly, cell extracts were prepared from 5×10^6 cells in 100 μl of a lysis buffer (25 mM TrisHCl, pH 7.5, 150 mM KCl, 5 mM EDNA, 1% Nonidet P-40, 0.5% sodium deoxycholate, and 0.1% SDS) and maintained on ice for 10 min, followed by centrifugation at 14,000×g for 5 min at 4° C. The resulting supernatants were collected and frozen at -80° C. or used immediately. Lysates (20 μl, 5-10 μg of total protein) were mixed with 30 μl of assay buffer (50 mM PIPES, 50 mM KC, 5 mM EGTA, 2 mM MgCl2, 1 mM dithiothreitol (DTT), and 0.1 phenylmethanesulfonyl fluoride (PMSF)), containing 100 μM of Z-DEVD-AFC. Caspase-3-like protease activity was measured at 37° C. using a spectrofluorometric plate reader (Perkin-Elmer, LS50B) in the kinetic mode with excitation and emission wavelengths of 400 and 505 nm, respectively. Activity was measured by the release of […] from the synthetic substrate Z-DEVD-AFC (Biomol, Plymouth Meeting, Pa.).

[23] = test system: MCF-7/ADR cells; experiment: Cell death of stationary phase MCF-7/ADR cells (FACS); assay type: cell-based, human; details: noncycling MCF-7/ADR cells
[24] = test system: CEM; experiment: Growth inhibition of CEM (wild type); assay type: cell-based; details: Homo sapiens, CCRF-CEM, ±1 SD, n>5
[25] = test system: MDA-MB-321; experiment: Growth inhibition of MDA-MB-321 (wild type); assay type: cell-based; details: Homo sapiens, ±1 SD, n>5
[26] = test system: MES-SA; experiment: Growth inhibition of MES-SA (wild type); assay type: cell-based; details: Homo sapiens, ±1 SD, n>5
[27] = test system: tubulin; experiment: Inhibition of tubulin assembly; assay type: biochemical, bovine; details: 10 μM tubulin, 20 min incubation, 30° C.; read-out: GI50 inhibitory concentration (tubulin assembly)
Protocol: as §1, §2

Q: What does the source list for COc1cc2c(c(N)c1OC)C(=O)/C(=C\c1cc(C)c(O)c(C)c1)C2 [IK-178]?
A: cell death / apoptosis [1]: growth-arrested but did not show any apoptotic features; GI50 [2]: 20 ± 1 nM; TOTAL SCORE (IP + SC) ([3]; IP + SC): 24; IP SCORE ([3]; intraperitoneal fibers, intraperitoneal treatment QD×4): 18; SC SCORE ([3]; subcutaneous fibers, intraperitoneal treatment QD×4): 6; GI50 [4]: 4 ± 1 nM; GI50 [5]: 20 ± 5 nM; sensitivity of transfectomas overexpressing mdr1 [6]: retained complete sensitivity; inhibition of [3H]vinblastine binding to tubulin [7]: Neither agent inhibited; loss of viability [8]: no loss of viability; GI50 [9]: 8 ± 2 nM; GI50 [10]: 7 ± 2 nM; GI50 [11]: 2 ± 0.2 nM; sensitivity with acquisition of MDR [12]: retained, and even enhanced; GI50 [13]: 40 ± 3 nM; GI50 [14]: 13 ± 3 nM; apoptosis [15]: became apoptotic; also recorded: did induce; GI50 [16]: 7 ± 3 nM; inhibition of [3H]colchicine binding [17]: 95±2%; caspase-3 activity ([18]; HL-60 cells): only a slight increase; caspase-3 activity relative to the level in the multidrug resistant cells ([18]; HL-60 wild type vs HL-60/ADR): about a quarter; GI50 [19]: 12 ± 3 nM; GI50 [20]: 25 ± 2 nM; time of maximum caspase-3 activity [21]: 24 h; caspase-3 activity ([21]; compared with untreated cells): time-dependent increase in caspase-3 activity; activation of caspase-3 [22]: activation of caspase-3; cell death / apoptosis [23]: appearance of an apoptotic sub-G0 /G1 peak; cell death / apoptosis ([23]; listed as indanocine): die following treatment; GI50 [24]: 12 ± 2 nM; GI50 [25]: 10 ± 3 nM; GI50 [26]: 85 ± 6 nM; GI50 [27]: 1700 ± 100 nM
